Patent publication US4971964A, “Pyridine derivatives” (priority 1988, dated 1990)

Assays:
[1] = tested on: dd male mice; assay: Acute Toxicity Test (minimum lethal dose, MLD); format: in vivo
Protocol: A test compound was given to dd male mice weighing 20±1 g (3 mice per group) per os. (p.o.; 300 mg/kg) or intraperitoneally (i.p.; 100 mg/kg). The mortality after 7 days from the administration was considered to determine the minimum lethal dose (MLD).

[2] = tested on: collagen-induced ischemic ECG alterations in spontaneous hypertensive rats (SHR); assay: Test On Inhibition of Collagen-Induced Ischemic Alterations of Electrocardiogram; format: in vivo; details: 1 mg/kg, iv; for Change of ECG (score 0-3): mean ± standard error, N = 5 to 6
Protocol: Spontaneous hypertensive rats (SHR) (male; 25-30-week-old; available from Hoshino Jikken Dobutsu) were intraperitoneally anesthesized with sodium pentobarbital (60 mg/kg). Each animal was fixed on its back, a venous cannula was inserted into the left jugular vein, and electrocardiograms (ECG) in extremity leads II were taken. A solvent alone (physiological saline containing 0.05N sodium hydroxide) or the test compound (I-12Z or I-13E) dissolved in the same solvent was intravenously administered in an amount of 0.1 ml per 100 g of body weight. Three minutes later, 4.5 mg/kg of collagen III originating from the bovine skin was intravenously injected, and the changes of the ECG were observed over 10 minutes. The ischemic ECG alterations after the intravenous injection of collagen were scored based on the following system according to the method of Matsumura et al., Folia Pharmacol., Japon, and the significance of difference in scores of the control group receiving the solvent alone and the test group was examined by the U-test of Mann-Whitney.
0 . . . Changes of 0.05 mV or less in the S-T segment or the T wave
1 . . . Changes between 0.05 and 0.1 mV in the S-T segment or the T wave
2 . . . Changes of 0.1 mV or more in the S-T segment or the T wave
3 . . . Arrythmia or cardiac arrest

[3] = target: T1, thromboxane synthase (TXA2 synthase), bovine platelet microsome (Bos taurus, UniProt Q2KIG5); assay: Test on Inhibition of TXA2 Biosynthesis (bovine platelet microsome, TXB2 by radioimmunoassay); format: biochemical; details: bovine platelet microsome, pH 7.4, prostaglandin H2 substrate
T1 construct: bovine platelet microsome; from tissue; host or cells: bovine platelets (microsome)
T1 sequence (Q2KIG5 1-533): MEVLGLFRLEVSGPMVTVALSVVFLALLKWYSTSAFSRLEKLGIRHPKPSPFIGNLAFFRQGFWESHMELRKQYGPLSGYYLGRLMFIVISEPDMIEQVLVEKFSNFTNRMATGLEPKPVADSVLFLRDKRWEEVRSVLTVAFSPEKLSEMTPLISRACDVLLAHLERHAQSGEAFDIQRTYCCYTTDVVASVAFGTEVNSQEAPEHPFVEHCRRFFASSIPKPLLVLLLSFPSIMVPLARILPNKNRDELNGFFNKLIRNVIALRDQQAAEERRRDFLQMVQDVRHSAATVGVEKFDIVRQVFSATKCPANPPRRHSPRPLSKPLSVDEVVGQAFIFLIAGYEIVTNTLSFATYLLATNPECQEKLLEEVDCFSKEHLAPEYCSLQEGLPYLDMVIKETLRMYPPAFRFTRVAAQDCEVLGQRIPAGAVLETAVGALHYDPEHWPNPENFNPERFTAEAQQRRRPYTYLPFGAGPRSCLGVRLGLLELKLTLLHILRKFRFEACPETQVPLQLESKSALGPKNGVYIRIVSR
Protocol: A mixture of 70 μl of bovine platelet microsome [protein: 40 μg; 100 mM tris-HCl buffer (pH=7.4)] and 10 μl of a test compound solution (100 mM tris-HCl buffer containing 10% methanol) was allowed to stand at 0° C. for 5 minutes, and 20 μl of a prostaglandin H2 solution (100 mM tris-HCl buffer supplemented with acetone containing 0.1 nmol of prostaglandin H2) was added thereto as a substrate.
The amount of thromboxane B2 (TXB2) (stable degradation product of TXA2) produced in the system was determined by radioimmunoassay [F. A. Fitzpatrick et al., Methods in Enzymology, Vol. 86, p.286 (1982)].
Inhibition of TXB2 synthesis was evaluated by IC50 (50% inhibitory concentration) or percent inhibition as calculated from equation described below, and the results obtained are shown in Table 1. [formula]

[4] = tested on: silver nitrate-induced arteriothromboembolia in male Wistar-Shizuoka rats; assay: Test on Inhibition of Silver Nitrate-Induced Arteriothromboembolia in Rats; format: in vivo; details: for Number of Obstruction Case/Number of Experiments: control 23/26; for Percent Obstruction: control 88%; for percent obstruction vs control (in words): I-12Z 0.3, 1.0, or 3.0 mg/kg, I-13E 3 mg/kg
Excerpt: Male Wistar -Shizuoka rats weighing 270±20 g were anesthetized with urethane (1.5 g/kg) intraperitoneally. Each animal was fixed on its back, and a venous cannula and an arterial cannula were inserted into the left carotid vein and the left femoral artery, respectively. An abdominal incision was made, the intestinal tract was put aside so that the descending abdominal aorta could be seen, the surrounding connective tissues were removed, the descending aorta was detached to a length of about 1 cm, and the detached descending aorta was put on a globe of 8 cm in diameter. A solvent (0.1 ml; physiological saline containing 0.05N sodium hydroxide) or a drug solution (0.1 ml) in the solvent was injected via the cannulated carotid vein per 100 g of body weight. Three minutes later, a 30% silver nitrate aqueous solution was dropped on the detached descending abdominal aorta. Five minutes later, the globe was removed, and the affected site was washed three times with physiological saline to stop the reaction. After the elapse of 30 minutes from the stopping of the reaction, the blood pressure of the femoral artery was measured, and the pressure fall was taken as an indication of obstruction of the descending arterial. Significance of the difference in degree of the obstruction between the control group (only the solvent was administered) and the test group was assayed by X^2 -assay.

[5] = dd male mice, mortality after 7 days
[6] = 0.5 min after collagen injection
[7] = 10 min after collagen injection

Compound	Acute Toxicity (MLD) ip [1, 5] [mg/kg]	ECG changes vs control (in words) [2]	Change of ECG (score 0-3) [2, 6]	Change of ECG (score 0-3) ([2]; 1 min after collagen injection)	Change of ECG (score 0-3) ([2]; 2 min after collagen injection)	Change of ECG (score 0-3) ([2]; 3 min after collagen injection)	Change of ECG (score 0-3) ([2]; 4 min after collagen injection)	Change of ECG (score 0-3) ([2]; 5 min after collagen injection)	Change of ECG (score 0-3) ([2]; 6 min after collagen injection)	Change of ECG (score 0-3) ([2]; 7 min after collagen injection)	Change of ECG (score 0-3) ([2]; 8 min after collagen injection)	Change of ECG (score 0-3) ([2]; 9 min after collagen injection)	Change of ECG (score 0-3) [2, 7]	IC50 [3] [nM]	Number of Obstruction Case/Number of Experiments ([4]; 1.0 mg/kg i.v.)	Percent Obstruction ([4]; 1.0 mg/kg i.v.) [%]	Number of Obstruction Case/Number of Experiments ([4]; 3.0 mg/kg i.v.)	Percent Obstruction ([4]; 3.0 mg/kg i.v.) [%]	percent obstruction vs control (in words) ([4]; i.v.)	other results
COC1=Nc2ccncc2/C(=C/CCCCC(=O)O)c2ccccc21 [Compound I-13E, (E)-11-(5-Carboxypentylidene)-6-methoxy-11H-pyrido[4,3-c][2]benzazepin]	> 100	significantly smaller than those in the control groups	0 ± 0	0.2 ± 0.2	0.2 ± 0.2	0.2 ± 0.2	0.6 ± 0.4	0.2 ± 0.2	0.4 ± 0.2	0.4 ± 0.2	0.4 ± 0.2	0.4 ± 0.2	0.2 ± 0.2	8.4	3/4	75	1/5	20	significantly lower than that of the control group	Acute Toxicity (MLD) po ([1]; mouse, in vivo, 10080 min): > 300 mg/kg
CN1C(=O)c2ccncc2/C(=C\CCCCC(=O)O)c2ccccc21 [Compound I-12Z, (Z)-11-(5-carboxypentylidene)-6-methyl-5,11-dihydropyrido[4,3-c][1]benzazepin-5(6H)-one]	> 100	significantly smaller than those in the control groups	0.8 ± 0.5	0.5 ± 0.2	1.0 ± 0.4	0.8 ± 0.3	0.7 ± 0.2	0.2 ± 0.2	0.3 ± 0.2	0.5 ± 0.2	0.5 ± 0.2	0.4 ± 0.2	0.3 ± 0.2	34	0/5	0	1/5	20	significantly lower than that of the control group	Acute Toxicity (MLD) po [1, 5]: > 300 mg/kg; Number of Obstruction Case/Number of Experiments ([4]; 0.1 mg/kg i.v.): 4/6; Percent Obstruction ([4]; 0.1 mg/kg i.v.): 67%; Number of Obstruction Case/Number of Experiments ([4]; 0.3 mg/kg i.v.): 1/5; Percent Obstruction ([4]; 0.3 mg/kg i.v.): 20%; inhibition of obstruction vs comparative drugs CV-4151 and OKY-1581 (in words) ([4]; i.v.): inhibition of obstruction at lower doses as compared with the comparative drugs, CV-4151 and OKY-1581
